Measured values reported in PMC11111408, “Concurrent inhibition of oncogenic and wild-type RAS-GTP for cancer therapy” (Nature, 2024).
“And” between values parts separate entries of the source, which are not always exact repeats. Equal entries are not always repeated.

Assays:
[1] = Mouse blood and tumour pharmacokinetics in NCI-H441 tumour bearing mice; details: for RMC-7977 (nmol/kg) Tumor: single dose, individual animals
Protocol: Tumour tissue samples were homogenized with a 10× volume of methanol/15 mM PBS (1:2, v:v). Sample preparation and analysis on a Sciex 6500+ triple quadrupole mass spectrometer equipped with an ACQUITY UPLC system were performed as previously described[12].
All datapoints shown, n = 3 per dose and timepoint.
Female BALB/c nude mice, NOD SCID and NSG mice 6-8 weeks old from Beijing Vital River/VR Laboratory Animal Co., LTD, Beijing AniKeeper Biotech Co., Ltd., Shanghai Sino-British SIPPR/BK Laboratory Animal Co., LTD and The Jackson Laboratory were used. Animals were housed in polycarbonate cages, in an environmentally monitored, well ventilated room maintained at a constant temperature of 20-26°C and relative humidity of 40-80%. Fluorescent lighting provided illumination approximately 12 hours per day. Each mouse was inoculated at the right flank with tumor cells (2x10^6-1x10^7) in 100-200 µL of media/PBS supplemented with Matrigel (1:1). Treatments were started when the average tumor size reached 100-250 mm^3. […] Mice on studies were weighed and tumor measurements collected twice weekly. […] Body weights were collected twice a week during the study. For single-dose pharmacokinetic/pharmacodynamics (PK/PD) study, mice were randomized into treatment groups when mean tumor volume reached 400-600 mm^3.

HRAS WT = HRAS WT (Homo sapiens, UniProt P01112+P62937); experiment: RAS binding affinity of compound-bound CYPA (Kd2), SPR; details: steady state SPR, (95% CI)
NRAS^Q61R = NRAS^Q61R (Homo sapiens, UniProt P01111+P62937, Q61R); experiment: as above; details: steady state SPR, (95% CI)
KRAS WT = KRAS WT (Homo sapiens, UniProt P01116+P62937); experiment: as above; design: made in house; host or cells: BL21(DE3) Escherichia coli; details: steady state SPR, (95% CI)
GDP-bound KRAS(G12C) = molecular target: T1, GDP-bound KRAS(G12C) (Homo sapiens, UniProt P01116, G12C); experiment: SPR binding of RMC-7977–CYPA binary complex to GDP-bound KRAS; details: in vitro
T1 construct: His6-TEV (N); made in house; host or cells: E. coli BL21(DE3)

Capan-1 cells = experiment: Cell proliferation (CTG); assay type: cell-based; details: Homo sapiens; Capan-1, CTG; (95% CI)
Protocol: Alternatively, cells were seeded in round-bottom ultra-low attachment 96-well plates, centrifuged at 1,000 rpm for 10 min to pellet the cells, and incubated overnight or up to 72 h to allow for 3D spheroid formation. […] Cell viability was determined by CellTiter-Glo 2.0 reagent (2D CTG) (Promega, G9243) or 3D CellTiter-Glo reagent (3D CTG) (Promega, G9683) according to the manufacturer’s protocols. Luminescence was detected using a SpectraMax M5 Plate Reader (Molecular Devices) of Perkin Elmer Enspire. Luminescence signal was normalized to vehicle-treated wells (normalized signal (%) = (luminescence (treated)/mean luminescence (vehicle)) × 100%). […] Data were plotted as log [inhibitor (M)], and a four-parameter sigmoidal concentration response model was fitted to the data to calculate EC50. […] Pa16C MEK1 mutant cells were evaluated by live-cell counting using Calcein AM and a SpectraMax i3X multi-mode detection platform (Molecular Devices). Growth percentages were calculated by normalizing the treated cell counts to their respective untreated cell counts.

[2] = molecular target: T2, MRAS and other RAS family small GTPase proteins (Homo sapiens, UniProt P10301, G38V); experiment: Cellular BRET between CYPA and small GTPases (RIT1, MRAS, RRAS, RRAS2, Rheb); assay type: cell-based; details: RRAS G38V, single replicates
T2 construct: expressed in transfected cells; host or cells: U2OS PPIA-KO
T2 sequence (P10301 1-218 G38V): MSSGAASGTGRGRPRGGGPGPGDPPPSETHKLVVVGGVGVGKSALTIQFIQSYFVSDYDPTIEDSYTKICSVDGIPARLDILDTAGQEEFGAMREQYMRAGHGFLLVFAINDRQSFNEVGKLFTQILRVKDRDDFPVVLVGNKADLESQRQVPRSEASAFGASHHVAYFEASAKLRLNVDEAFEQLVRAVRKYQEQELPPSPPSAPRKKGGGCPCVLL

[3] = female, BALB/c nude, mouse, tumour, po, 10 mg/kg
[4] = female, BALB/c nude, mouse, whole blood, po, 10 mg/kg

CCn1c(-c2cc(N3CCN(C4CC4)CC3)cnc2[C@H](C)OC)c2c3cc(ccc31)-c1csc(n1)C[C@H](NC(=O)[C@H]1[C@@H]3COC[C@@H]31)C(=O)N1CCC[C@H](N1)C(=O)OCC(C)(C)C2 [RMC-7977]
AUC(0-t) [1, 3]: 24300 ng·h/mL
half-life [1, 3]: 18.3 h
AUC(0-t) [1, 4]: 7240 ng·h/mL
Cmax [1, 4]: 1110 ng/mL
half-life [1, 4]: 2.78 h
RMC-7977 (nmol/kg) Tumor ([1]; 8h, 1 mg/kg): 244 nmol/kg and 196 nmol/kg and 235 nmol/kg
RMC-7977 (nmol/kg) Tumor ([1]; 8h, 5 mg/kg): 458 nmol/kg and 496 nmol/kg and 1040 nmol/kg
RMC-7977 (nmol/kg) Tumor ([1]; 8h, 10 mg/kg): 998 nmol/kg and 832 nmol/kg and 1249 nmol/kg and 1135 nmol/kg and 713 nmol/kg and 1191 nmol/kg
RMC-7977 (nmol/kg) Tumor ([1]; 8h, 25 mg/kg): 2289 nmol/kg and 4057 nmol/kg and 2196 nmol/kg
RMC-7977 (nmol/kg) Tumor ([1]; 24h, 1 mg/kg): 38.1 nmol/kg and 54.8 nmol/kg and 48.3 nmol/kg
RMC-7977 (nmol/kg) Tumor ([1]; 24h, 5 mg/kg): 201 nmol/kg and 183 nmol/kg and 226 nmol/kg
RMC-7977 (nmol/kg) Tumor ([1]; 24h, 10 mg/kg): 310 nmol/kg and 343 nmol/kg and 320 nmol/kg and 402 nmol/kg and 316 nmol/kg and 606 nmol/kg
RMC-7977 (nmol/kg) Tumor ([1]; 24h, 25 mg/kg): 1047 nmol/kg and 906 nmol/kg and 996 nmol/kg
RMC-7977 (nmol/kg) Tumor ([1]; 48h, 1 mg/kg): 27 nmol/kg and 31.7 nmol/kg
RMC-7977 (nmol/kg) Tumor ([1]; 48h, 5 mg/kg): 68.9 nmol/kg and 51.9 nmol/kg and 52.5 nmol/kg
RMC-7977 (nmol/kg) Tumor ([1]; 48h, 10 mg/kg): 177 nmol/kg and 192 nmol/kg and 214 nmol/kg and 205 nmol/kg and 233 nmol/kg and 65.7 nmol/kg
RMC-7977 (nmol/kg) Tumor ([1]; 48h, 25 mg/kg): 433 nmol/kg and 394 nmol/kg and 691 nmol/kg
RMC-7977 (nmol/kg) Tumor ([1]; 72h, 5 mg/kg): 52.4 nmol/kg and 38.4 nmol/kg
RMC-7977 (nmol/kg) Tumor ([1]; 72h, 10 mg/kg): 155 nmol/kg and 86.2 nmol/kg and 63.8 nmol/kg and 71.8 nmol/kg and 72 nmol/kg
RMC-7977 (nmol/kg) Tumor ([1]; 72h, 25 mg/kg): 253 nmol/kg and 209 nmol/kg and 230 nmol/kg
overall exposure in subcutaneous tumours compared with blood ([1]; subcutaneous xenograft tumour models): approximately threefold increase
Kd (HRAS WT): 94.7 nM
Kd (NRAS^Q61R): 239 nM
Kd (KRAS WT): 116 nM
binding of RMC-7977–CYPA binary complex to GDP-bound KRAS(G12C) (GDP-bound KRAS(G12C)): No binding was observed
EC50 (Capan-1 cells): 2.2 nM
Cellular milliBRET signal between CYPA and small GTPase protein ([2]; RMC-7977 1.524 nM): 0.03915 milliBRET and 0.5182 milliBRET and 0.5529 milliBRET and 0.4086 milliBRET and -0.3288 milliBRET and -0.1046 milliBRET
Cellular milliBRET signal between CYPA and small GTPase protein ([2]; RMC-7977 4.572 nM): 0.5753 milliBRET and 0.4746 milliBRET and 0.4726 milliBRET and 0.8392 milliBRET and 0.3184 milliBRET and -0.4343 milliBRET
Cellular milliBRET signal between CYPA and small GTPase protein ([2]; RMC-7977 13.717 nM): 1.433 milliBRET and 1.375 milliBRET and 1.967 milliBRET and 1.168 milliBRET and -0.05818 milliBRET and -0.1444 milliBRET
Cellular milliBRET signal between CYPA and small GTPase protein ([2]; RMC-7977 41.152 nM): 2.179 milliBRET and 2.7799 milliBRET and 3.446 milliBRET and 3.438 milliBRET and 1.092 milliBRET and 1.757 milliBRET
Cellular milliBRET signal between CYPA and small GTPase protein ([2]; RMC-7977 123.457 nM): 6.2456 milliBRET and 5.867 milliBRET and 7.851 milliBRET and 6.806 milliBRET and 4.695 milliBRET and 3.825 milliBRET
